Measured values from US7105551B2, “Thiazole derivatives for treating PPAR related disorders” (SmithKline Beecham Corporation, priority 2000, dated 2006).

Legend:
hPPAR γ = target: T1, hPPAR γ (Homo sapiens, UniProt P37231); assay: Transient transfection (transactivation) assay in CV-1 cells, hPPAR gamma; format: cell-based; conditions: GAL4 chimeric receptor, SPAP reporter
T1 construct: expressed in transfected cells; host or cells: CV-1 cells
T1 sequence (P37231 238-503 limits assumed): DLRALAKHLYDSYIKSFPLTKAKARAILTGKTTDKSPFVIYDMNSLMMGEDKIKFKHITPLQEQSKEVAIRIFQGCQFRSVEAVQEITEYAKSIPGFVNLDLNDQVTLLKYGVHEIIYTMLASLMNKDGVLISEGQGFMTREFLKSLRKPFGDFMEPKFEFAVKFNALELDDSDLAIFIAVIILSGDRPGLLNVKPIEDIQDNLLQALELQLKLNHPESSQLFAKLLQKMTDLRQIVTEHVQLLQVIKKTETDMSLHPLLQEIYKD
Text: (§1) Compounds were screened for functional potency in transient transfection assays in CV-1 cells for their ability to activate the PPAR subtypes (transactivation assay). A previously established chimeric receptor system was utilized to allow comparison of the relative transcriptional activity of the receptor subtypes on the same target gene and to prevent endogenous receptor activation from complicating the interpretation of results. […] The ligand binding domains for murine and human PPAR alpha, PPAR gamma, and PPAR delta were each fused to the yeast transcription factor GAL4 DNA binding domain. CV-1 cells were transiently transfected with expression vectors for the respective PPAR chimera along with a reporter construct containing five copies of the GAL4 DNA binding site driving expression of secreted placental alkalin phosphatase (SPAP) and beta-galactosidase. After 16 h, the medium was exchanged to DME medium supplemented with 10% delipidated fetal calf serum and th test compound at the appropriate concentration. After an additional 24 h, cell extracts were prepared and assayed for alkaline phosphatase and β-galactosidase activity. […] The positive control in the hPPAR alpha assays was 2-methyl-2-[4-{[(4-methyl-2-[4-trifluoromethylphenyl]-thiazol-5-yl-carbonyl)amino]methyl}-phenoxy]propionic acid. The positive control for PPAR delta assays was 2-{2-methyl-4-[({4-methyl-2-{trifluoromethyl)phenyl]-1,3-thiazol-5-yl}methyl)sulfanyl]phenoxy}acetic acid.

hPPAR δ = target: T2, hPPAR δ (Homo sapiens, UniProt Q03181); assay: Transient transfection (transactivation) assay in CV-1 cells, hPPAR delta; format: cell-based; conditions: GAL4 chimeric receptor, SPAP reporter
T2 construct: expressed in transfected cells; host or cells: CV-1 cells
T2 sequence (Q03181 211-439 limits assumed): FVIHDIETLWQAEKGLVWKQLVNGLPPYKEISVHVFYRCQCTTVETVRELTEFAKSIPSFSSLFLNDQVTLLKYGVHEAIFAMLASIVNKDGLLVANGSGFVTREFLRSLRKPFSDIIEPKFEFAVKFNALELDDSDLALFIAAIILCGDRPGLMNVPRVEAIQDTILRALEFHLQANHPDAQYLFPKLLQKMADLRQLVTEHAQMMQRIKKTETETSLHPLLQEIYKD
Text: as §1

hPPAR α = target: T3, hPPAR α (Homo sapiens, UniProt Q07869); assay: Transient transfection (transactivation) assay in CV-1 cells, hPPAR alpha; format: cell-based; conditions: GAL4 chimeric receptor, SPAP reporter
T3 construct: expressed in transfected cells; host or cells: CV-1 cells
T3 sequence (Q07869 239-466 limits assumed): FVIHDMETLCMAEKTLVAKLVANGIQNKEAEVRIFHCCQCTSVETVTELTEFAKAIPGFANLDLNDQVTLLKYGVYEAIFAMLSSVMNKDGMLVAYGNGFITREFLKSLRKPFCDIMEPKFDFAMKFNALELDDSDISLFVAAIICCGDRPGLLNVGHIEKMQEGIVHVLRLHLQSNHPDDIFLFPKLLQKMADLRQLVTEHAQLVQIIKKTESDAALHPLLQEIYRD
Text: as §1

Row | melting point [°C] | EC50 (hPPAR γ) [nM] | EC50 (hPPAR δ) [nM] | EC50 (hPPAR α) [nM] | Structure (SMILES)
1 | 133 | – | – | – | Cc1cc(OC(C)c2sc(-c3ccc(C(F)(F)F)cc3F)nc2C)ccc1OC(C)(C)C(=O)O (stereo not shown) [Example 19, 2-(4-{1-[2-(2-fluoro-4-trifluoromethyl-phenyl)-4-methyl-thiazol-5-yl]-ethoxy}-2-methyl-phenoxy)-2-methyl-propionic acid]
2 | – | 300 | 0.7 | 10 | Cc1cc(O[C@H](C)c2sc(-c3ccc(C(F)(F)F)cc3)nc2C)ccc1OC(C)(C)C(=O)O [Example 11, (R)-2-methyl-2-(2-methyl-4-{1-[4-methyl-2-(4-trifluoromethylphenyl)-thiazol-5-yl]ethoxy}-phenoxy)-propionic acid]

The remaining lines, values behind:

Row | Structure (SMILES) | melting point [°C] | EC50 (hPPAR γ) [nM] | EC50 (hPPAR δ) [nM] | EC50 (hPPAR α) [nM]
3 | Cc1cc(O[C@@H](C)c2sc(-c3ccc(C(F)(F)F)cc3)nc2C)ccc1OC(C)(C)C(=O)O [Example 9, (S)-2-methyl-2-(2-methyl-4-{1-[4-methyl-2-(4-trifluoromethylphenyl)-thiazol-5-yl]ethoxy}-phenoxy)-propionic acid] | – | 7000 | 3 | 16
4 | CC[C@H](Oc1ccc(OC(C)(C)C(=O)O)c(C)c1)c1sc(-c2ccc(C(F)(F)F)cc2)nc1C [Example 31, (S)-2-methyl-2-(2-methyl-4-{1-[4-methyl-2-(4-trifluoromethyl-phenyl)-thiazol-5-yl]propoxy}-phenoxy)-propionic acid] | – | 660 | 1.7 | 5
5 | CC[C@@H](Oc1ccc(OC(C)(C)C(=O)O)c(C)c1)c1sc(-c2ccc(C(F)(F)F)cc2)nc1C [Example 29, (R)-2-methyl-2-(2-methyl-4-{1-[4-methyl-2-(4-trifluoromethyl-phenyl)thiazol-5-yl]propoxy}-phenoxy)-propionic acid] | – | 240 | 1.5 | 9
